Columns and labels:
[1] = Relative solubility by turbidity in aqueous buffers; type: physicochemical; settings: pH 1.4 as headed (Simulated Gastric Fluid)
SK-MEL-2 cells = experiment: Cell growth inhibition (Cell Titer Glo), SK-MEL-2; type: cell-based; settings: Homo sapiens, SK-MEL-2, 72 h; wild-type B-RAF cell line, 3 days
Protocol: (§1) Compounds are assessed in a variety of cell based assays, employing cells with or without B-Raf V600E mutation, for example cell lines with B-Raf V600E mutation (A375 and COLO205), as well as tumorigenic cell lines with wild-type B-RAF (SW620 and SK-MEL-2). Reagent and assay conditions are as follows:
(§2) SK-MEL-2 cells growth medium: • Minimum Eagle essential medium, 2 mM L-glutamine, 1.5 g/L sodium bicarbonate, 0.1 mM non-essential amino acids, 1.0 mM sodium pyruvate, 10% fetal bovine serum. • On day 1, cells are seeded in growth media in 200 μL per well in a 96-well polystyrene tissue culture plate at 2,000 cells per well (A375, COLO205, SK-MEL-2) or 5,000 cells per well for SW620, and incubated at 37° C. and 5% CO2 overnight. • On day 2, compound at 4 mM in dimethyl sulfoxide is serially diluted 1:4 (10 μL with 30 μL dimethyl sulfoxide) seven times for a total of 8 concentration points. For each dilution point a 1 μL aliquot is added to a well containing cells (highest dilution point at 20 μM), with 1 μL of dimethyl sulfoxide as a negative control (each sample at 0.5% dimethyl sulfoxide). The cells are incubated for 3 days at 37° C. in 5% CO2. • On day 5, Cell Titer Glo (Promega) is thawed and added 100 μL to each well and the plate shaken for 1-2 minutes. The plates are incubated for 10 minutes at room temperature, then […] signal is read (e.g. on Safire reader). The measured fluoresence correlates directly with cell number, such that the reading as a function of compound concentration is used to determine the IC50 value.

CYP3A4(BQ) = biological target: T1, CYP3A4(BQ) (Homo sapiens, UniProt P08684); experiment: CYP inhibition (fluorescent substrate), CYP3A4(BQ); type: in vitro ADME; settings: read-out: Cyp IC50 (μM) 3A4(BQ)
T1 construct: purchased BD Biosciences
Protocol: (§3) CYP (Cytochrome P450) enzymes are the major drug metabolizing enzymes present in the liver. The inhibition of CYP enzyme activity (IC50) for each of CYP1A2, CYP2C19, CYP2C9, CYP2D6, CYP3A4(BFC) and CYP3A4(BQ) is determined for compounds, where inhibition of metabolism of a known substrate leads to a decrease in the fluorescence of the metabolized product. The fluorescence of the product is monitored as a function of compound concentration. Compounds are dissolved in dimethyl sulfoxide to a concentration of 100 mM. These are diluted 1 μL into 82 μL of acetonitrile. An 11 μL aliquot of this solution is then added to 204 μL of cofactor mix (1.3% NADPH Regeneration system Solution A, 1.04% NADPH Regeneration system Solution B from BD Biosciences, 5% acetonitrile and 0.05% dimethyl sulfoxide). These are then serially diluted 1:1 (160 μL to 160 μL co-factor mix) for a total of 10 points. A 10 μL aliquot of this final mixture is dispensed into 384 well assay plates and incubated for 10 minutes at 37° C. […] Assay plates are incubated at 37° C. (CYP1A2-15 min; CYP2C9-45 min; CYP2C19, 2D6 and 3A4-30 min) and read in a Tecan Safire 2 plate reader (CYP1A2, 2C19 and 3A4 409 ex/460 em; CYP2C9 and 2D6 409 ex/530 em). The signal versus compound concentration is used to determine the IC50. The enzymes and substrates for this assay are obtained from BD Biosciences.

Btk = Btk (Homo sapiens, UniProt Q06187); experiment: Biochemical inhibitory activity, other protein kinases: Btk; settings: listing of the kinase means IC50 >1 μM
CYP2C9 = biological target: T2, CYP2C9 (Homo sapiens, UniProt P11712); experiment: CYP inhibition (fluorescent substrate), CYP2C9; type: in vitro ADME; settings: substrate MFC; read-out: Cyp IC50 (μM) 2C9
T2 construct: purchased BD Biosciences
Protocol: as §3

A375 cells = experiment: Cell growth inhibition (Cell Titer Glo), A375; type: cell-based; settings: Homo sapiens, A-375, 72 h; B-Raf V600E cell line, 3 days
Protocol: as §1
A375 cells growth medium: • Dulbecco's modified Eagle's medium, 4 mM L-glutamine, 4.5 g/L D-glucose, 10% fetal bovine serum.
as §2

Kit = Kit (Homo sapiens, UniProt P10721); experiment: Biochemical inhibitory activity, other protein kinases: Kit; settings: for Kinase having IC50 of >1 μM: listing of the kinase means IC50 >1 μM
Raf kinases = experiment: Biochemical assay, Raf kinases as well as other kinases
Protocol: Assays for biochemical and cell based activity are known in the art, for example, as described in PCT publication WO 2007/002433, the disclosure of which is hereby incorporated by reference as it relates to such assays. For example, the biochemical activity IC50 values are determined with respect to inhibition of A-Raf kinase activity, B-Raf kinase activity, c-Raf-1 kinase activity, or B-Raf V600E kinase activity, where inhibition of phosphorylation of a peptide substrate is measured as a function of compound concentration. Compounds to be tested are diluted in dimethyl sulfoxide to a concentration of 0.1 mM. These are serially diluted 15 μL into 30 μL of dimethyl sulfoxide seven times in 96 well plates for a total of 8 dilution points, and for each dilution point 1 μL is added to a well of an assay plate. Plates are prepared such that each well in a 384 well plate contains 1 μL of compound in 10 μL volume with 0.1 ng Raf enzyme (i.e. any of A-Raf, B-Raf, c-Raf-1 or B-Raf V600E, Upstate Biotechnology or prepared by methods known to one of skill in the art), 50 mM HEPES, pH 7.0, 50 mM NaCl, 2 mM MgCl2, 1 mM MnCl2, 0.01% Tween-20, 1 mM DTT, and 100 nM biotin-MEK1 as substrate. The reaction is started with addition of 10 μL of 200 μM ATP (i.e. final 100 μM ATP). After incubation of the kinase reaction for 45 minutes at room temperature, 5 μL/well of Stop Solution is added (25 mM Hepes pH 7.5, 100 mM EDTA, 0.01% BSA with donor beads (Streptavidin coated beads, Perkin Elmer), acceptor beads (Protein A coated, Perkin Elmer), and anti phosphor MEK1/2 antibody (CellSignal), each at final concentration 10 μg/mL). The plates are incubated for 3 hours at room temperature and read on Envision reader (Perkin Elmer). Phosphorylation of Mek1 results in binding of the anti-phosphor-MEK1/2 antibody and association of the donor and acceptor beads such that signal correlates with kinase activity. The signal vs. compound concentration is used to determine the IC50.

T1 sequence (P08684 whole entry): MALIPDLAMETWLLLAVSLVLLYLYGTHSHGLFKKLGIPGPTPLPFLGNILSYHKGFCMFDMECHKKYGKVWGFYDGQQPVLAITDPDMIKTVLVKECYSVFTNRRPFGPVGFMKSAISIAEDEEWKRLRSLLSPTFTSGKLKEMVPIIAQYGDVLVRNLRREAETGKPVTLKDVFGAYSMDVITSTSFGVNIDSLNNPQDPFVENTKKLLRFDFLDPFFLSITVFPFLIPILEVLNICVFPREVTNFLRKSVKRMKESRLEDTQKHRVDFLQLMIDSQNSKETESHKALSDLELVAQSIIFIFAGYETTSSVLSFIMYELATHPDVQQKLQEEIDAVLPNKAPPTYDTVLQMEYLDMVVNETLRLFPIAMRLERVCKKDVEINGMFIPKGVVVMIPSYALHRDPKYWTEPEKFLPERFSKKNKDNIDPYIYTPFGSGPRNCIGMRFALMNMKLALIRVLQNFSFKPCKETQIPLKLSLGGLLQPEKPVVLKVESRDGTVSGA
Btk, sequence (Q06187 whole entry, species assumed): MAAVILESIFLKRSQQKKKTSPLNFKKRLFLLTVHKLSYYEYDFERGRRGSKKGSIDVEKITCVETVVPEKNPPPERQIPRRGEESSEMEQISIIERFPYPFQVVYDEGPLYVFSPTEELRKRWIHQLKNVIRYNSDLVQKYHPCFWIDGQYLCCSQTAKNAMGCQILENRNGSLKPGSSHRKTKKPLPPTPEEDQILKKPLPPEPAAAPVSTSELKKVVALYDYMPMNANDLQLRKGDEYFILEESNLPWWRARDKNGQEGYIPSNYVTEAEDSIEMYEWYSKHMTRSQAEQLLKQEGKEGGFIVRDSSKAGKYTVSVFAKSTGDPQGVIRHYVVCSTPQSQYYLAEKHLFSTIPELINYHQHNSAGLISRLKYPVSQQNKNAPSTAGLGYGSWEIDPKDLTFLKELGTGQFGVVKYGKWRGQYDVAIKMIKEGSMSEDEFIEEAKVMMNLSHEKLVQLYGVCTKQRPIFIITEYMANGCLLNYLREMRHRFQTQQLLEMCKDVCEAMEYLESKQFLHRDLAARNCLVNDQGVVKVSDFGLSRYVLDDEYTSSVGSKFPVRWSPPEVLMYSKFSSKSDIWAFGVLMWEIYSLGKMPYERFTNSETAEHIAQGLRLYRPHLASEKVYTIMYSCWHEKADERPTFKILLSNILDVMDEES
Kit, sequence (P10721 26-976, species assumed): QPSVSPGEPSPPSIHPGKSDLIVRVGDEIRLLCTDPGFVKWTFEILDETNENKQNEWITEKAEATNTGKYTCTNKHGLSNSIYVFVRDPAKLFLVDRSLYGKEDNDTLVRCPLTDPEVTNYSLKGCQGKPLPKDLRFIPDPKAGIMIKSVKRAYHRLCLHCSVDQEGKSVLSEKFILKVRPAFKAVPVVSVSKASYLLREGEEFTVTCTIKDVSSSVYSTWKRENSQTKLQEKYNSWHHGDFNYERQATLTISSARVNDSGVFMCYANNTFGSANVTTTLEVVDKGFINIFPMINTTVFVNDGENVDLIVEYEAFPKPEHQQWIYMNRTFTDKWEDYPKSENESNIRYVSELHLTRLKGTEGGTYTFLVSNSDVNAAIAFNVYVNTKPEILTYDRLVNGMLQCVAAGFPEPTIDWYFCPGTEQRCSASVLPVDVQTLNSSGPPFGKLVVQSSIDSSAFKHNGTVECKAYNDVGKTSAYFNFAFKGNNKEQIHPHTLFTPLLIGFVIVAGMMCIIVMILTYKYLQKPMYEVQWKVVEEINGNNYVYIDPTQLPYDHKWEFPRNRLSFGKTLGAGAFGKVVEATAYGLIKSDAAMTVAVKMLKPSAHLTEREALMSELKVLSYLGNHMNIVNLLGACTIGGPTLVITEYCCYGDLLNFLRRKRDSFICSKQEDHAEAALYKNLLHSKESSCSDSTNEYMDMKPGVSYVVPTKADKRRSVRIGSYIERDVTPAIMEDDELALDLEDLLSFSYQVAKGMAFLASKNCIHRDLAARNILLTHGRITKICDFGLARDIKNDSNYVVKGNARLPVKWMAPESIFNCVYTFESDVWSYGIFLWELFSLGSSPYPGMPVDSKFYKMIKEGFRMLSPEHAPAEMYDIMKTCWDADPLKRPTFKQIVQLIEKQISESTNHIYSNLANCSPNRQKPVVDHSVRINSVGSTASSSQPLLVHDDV
T2 sequence (P11712 whole entry): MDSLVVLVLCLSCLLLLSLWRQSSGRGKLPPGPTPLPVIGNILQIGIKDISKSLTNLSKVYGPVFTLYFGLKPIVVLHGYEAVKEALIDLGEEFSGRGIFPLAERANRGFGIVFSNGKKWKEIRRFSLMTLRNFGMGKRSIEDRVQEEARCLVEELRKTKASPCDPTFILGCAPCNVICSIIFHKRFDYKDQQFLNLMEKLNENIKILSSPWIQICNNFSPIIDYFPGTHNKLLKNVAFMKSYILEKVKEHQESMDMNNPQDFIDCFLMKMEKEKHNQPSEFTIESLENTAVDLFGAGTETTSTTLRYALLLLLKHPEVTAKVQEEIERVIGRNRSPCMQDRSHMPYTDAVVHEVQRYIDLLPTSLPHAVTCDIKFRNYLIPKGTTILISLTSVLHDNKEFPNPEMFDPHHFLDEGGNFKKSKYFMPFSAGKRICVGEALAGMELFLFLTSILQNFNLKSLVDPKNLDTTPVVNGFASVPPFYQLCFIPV

Row | SMILES | turbidity threshold (L, M, H) 1.4 [1] | IC50 (SK-MEL-2 cells) [µM] | IC50 (CYP3A4(BQ)) [µM] | Kinase having IC50 of >1 μM (Btk) | IC50 (CYP2C9) [µM] | IC50 (A375 cells) [µM] | Kinase having IC50 of <1 μM (Kit; listing of the kinase means IC50 <1 μM) | Selectivity of inhibitory activity, Raf kinases versus other kinases (Raf kinases) | Kinase having IC50 of >1 μM (Kit)
1 | N#Cc1cnc2[nH]cc(C(=O)c3c(F)ccc(NS(=O)(=O)c4cc(F)ccc4F)c3F)c2c1 [Compound P-0004, N-[3-(5-cyano-1H-pyrrolo[2,3-b]pyridine-3-carbonyl)-2,4-difluoro-phenyl]-2,5-difluoro-benzenesulfonamide] | M (moderate solubility if the threshold concentration is 31.3 μM to 250 μM) | > 20 | 5 to 10 | Btk | > 10 | < 1 | Kit | selective activity to the Raf kinases | –
2 | CN(C)S(=O)(=O)Nc1ccc(F)c(C(=O)c2c[nH]c3ncc(C#N)cc23)c1F [Compound P-0007, N,N-dimethylamino-sulfonic acid [3-(5-cyano-1H-pyrrolo[2,3-b]pyridine-3-carbonyl)-2,4-difluoro-phenyl]-amide] | M (moderate solubility if the threshold concentration is 31.3 μM to 250 μM) | > 20 | < 5 | Btk | > 10 | < 2 | – | selective activity to the Raf kinases | Kit
3 | N#Cc1cnc2[nH]cc(C(=O)c3c(F)ccc(NS(=O)(=O)c4cccc(F)c4)c3F)c2c1 [Compound P-0005, N-[3-(5-cyano-1H-pyrrolo[2,3-b]pyridine-3-carbonyl)-2,4-difluoro-phenyl]-3-fluoro-benzenesulfonamide] | M (moderate solubility if the threshold concentration is 31.3 μM to 250 μM) | > 20 | 5 to 10 | Btk | 5 to 10 | < 1 | – | selective activity to the Raf kinases | Kit
4 | CCCS(=O)(=O)Nc1cccc(C(=O)c2c[nH]c3ncc(C#N)cc23)c1F [Compound P-0003, propane-1-sulfonic acid [3-(5-cyano-1H-pyrrolo[2,3-b]pyridine-3-carbonyl)-2-fluoro-phenyl]-amide] | M (moderate solubility if the threshold concentration is 31.3 μM to 250 μM) | > 20 | > 10 | Btk | > 10 | < 2 | – | selective activity to the Raf kinases | Kit
5 | N#Cc1cnc2[nH]cc(C(=O)c3c(F)ccc(NS(=O)(=O)N4CCCC4)c3F)c2c1 [Compound P-0006, pyrrolidine-1-sulfonic acid [3-(5-cyano-1H-pyrrolo[2,3-b]pyridine-3-carbonyl)-2,4-difluoro-phenyl]-amide] | M (moderate solubility if the threshold concentration is 31.3 μM to 250 μM) | – | > 10 | Btk | > 10 | < 1 | – | selective activity to the Raf kinases | Kit
6 | CCCS(=O)(=O)Nc1ccc(F)c(C(=O)c2c[nH]c3ncc(C#N)cc23)c1F [Compound P-0002, propane-1-sulfonic acid [3-(5-cyano-1H-pyrrolo[2,3-b]pyridine-3-carbonyl)-2,4-difluoro-phenyl]-amide] | M (moderate solubility if the threshold concentration is 31.3 μM to 250 μM) | > 20 | > 10 | Btk | 5 to 10 | < 1 | – | selective activity to the Raf kinases | Kit
7 | CCCS(=O)(=O)Nc1ccc(F)c(C(=O)c2c[nH]c3ncc(-c4cnc(OC)nc4)cc23)c1F [Compound P-0001, propane-1-sulfonic acid {2,4-difluoro-3-[5-(2-methoxy-pyrimidin-5-yl)-1H-pyrrolo[2,3-b]pyridine-3-carbonyl]-phenyl}-amide] | M (moderate solubility if the threshold concentration is 31.3 μM to 250 μM) | > 5 | > 10 | Btk | 5 to 10 | < 1 | – | selective activity to the Raf kinases | Kit
